For orientation: IC50 means the concentration at which inhibition is half-maximal. For orientation: MBC means the lowest tested concentration that kills the bacteria rather than only halting them. Low readings indicate greater bactericidal potency, high ones weaker bactericidal potency. The MIC is the lowest concentration found to suppress growth. A word on the EC50: it is the concentration at which the effect is half-maximal.

Data set [1] concerns healthy/non-parasitized erythrocytes. Briefly: Hemotoxicity in vitro (hemolysis assay). The class given is cell-based, human. The settings on record: at ≤10 μM.
Protocol: In an embodiment, the evaluation of hemotoxicity in vitro was performed as follows. The in vitro hemolysis assay evaluates the release of hemoglobin in the medium (as an indicator of lysis of erythrocytes) after exposure to the test compounds.
In the present disclosure, the evaluation of hemotoxicity in vitro was performed as follows. In a 96-flat bottom plate 3% HTC, 20 μL of 20% Triton X-100, and 20 μL of PBS or RPMIc in 2% DMSO was added. Compounds were tested in a 1:4 serial dilution in concentrations ranging from 10 μM to 0.04 μM. After the incubation of 60 minutes, the plate was centrifuged at 2000 rpm for 5 minutes. 100 mL of Supernatant was transferred to a flat bottom plate. The absorbance reading was made at 450 nm in a Mode (Triad, Dynex Technologies). Two independent tests were carried out in triplicate. The results are presented in the form of a percentage of hemolysis-% hemolysis, obtained by the following formula; % Hemolysis=ABS (sample)/abs (C+)×100. Whereas C+ is a Triton x-100 to 20% solution RPMIc.
Data set [2] concerns Plasmodium falciparum 3D7 strain. As to the kind of experiment: In vitro susceptibility assay of P. falciparum, SYBR Green I. The class given is cell-based. The settings on record: for antimalarial activity (in words): P. falciparum 3D7; for IC50: Plasmodium falciparum. On the procedure: The principle of the in vitro susceptibility test to malaria is to assess the degree of development of parasites P. falciparum in the presence of different concentrations of the compounds.
In the present disclosure, the antimalarial activity was also evaluated. Each compound was lyophilized and solubilized in DMSO (Sigma-Aldrich) to obtain a final concentration of 5 mM. Some intermediate dilutions were made to achieve the final concentration of 10 μM in the first well of the plate.
In an embodiment, the culture of P. falciparum was carried out as follows. […] Parasites were cultivated at 5% hematocrit, 37° C. and atmosphere with 5% of CO2, human serum was replaced with 0.5% AlbuMAXII (Invitrogen™) in the culture medium. Synchronized cultures were obtained by treatments with a 5% (m/v) solution of D-sorbitol (Sigma-Aldrich).
In the present disclosure, the in vitro susceptibility assay of P. falciparum using SYBR Green I was carried out as follows. […] Briefly, early ring stage parasites (>80% of rings, 3% haematocrit and 1% parasitaemia) were tested in duplicate in a 96-well plate and incubated with the compounds for 48 h (37° C., 5% CO2), parasite growth was assessed with SYBR Green I (Thermo Fisher Scientific). Each compound was tested in concentrations ranging from 10 to 0.001 μM. Fluorescence intensity was measured with a microplate reader with excitation and emission wavelengths of 485 and 535 nm, respectively, and analysed by nonlinear regression using GraphPad Prism 5 demo version to determine

The subject of data set [3] is V79 cells. The following applies: for DL50: 24 h; for SI (Selectivity Index): calculated by LD50/IC50 (V79 / P. falciparum 3D7). The protocol: In the present disclosure, the cytotoxicity in vitro against mammalian cell was carried out as follows. Cytotoxicity was assessed on the mammalian cell line V79 (Chinese hamster lung), using an MTT based assay, as previously described [38B]. Tests were conducted in triplicate for each compound, at a range of concentrations (800 μM to 0.0512 μM), and with culture media containing 0.5% DMSO (no drug control); incubation time 24 h. Absorbance was read at 570 nm on a multi-mode microplate reader to produce a log dose-dependence curve. The LD50 value for each compound was estimated by non-linear interpolation of the dose-dependence curve (GraphPad Software).

For data set [4], the system named is hemozoin (β-hematin). As to the kind of experiment: Inhibition of polymerization of hemozoin (β-hematin) in vitro. The settings on record: 12 and 16 at 48.0, 24.0, 12.0 μM; 31 at 96.0, 48.0, 24.0 μM; 24 h.
Data set [5] concerns Staphylococcus aureus ATCC 29213. Briefly: MIC/MBC broth dilution (CLSI), S. aureus reference strain. The class given is cell-based. The following applies: for MBC / MIC: Staphylococcus aureus, ATCC29213. An excerpt:
(§1) In the present disclosure, two Gram-positive—Staphylococcus aureus ATCC 29213 and Enterococcus faecalis ATCC […] and two Gram-negative—Escherichia coli ATCC 25922 and Pseudomonas aeruginosa ATCC 27853—reference bacterial strains were used. When it was possible to determine a minimal inhibitory concentration (MIC) value for these strains, clinically relevant strains were also used. These included methicillin-resistant S. uareus (MRSA) 66/1, isolated from public buses, as well as a isolate sensitive to the most commonly used antibiotic families (S. aureus 40/61/24) and two vancomycin-resistant Enterococcus (VRE) strains isolated from river water, E. faecalis B3/101 and E. faecalis A5/102, which is sensitive to ampicillin. Frozen stocks of all strains were grown on Mueller-Hinton agar (MH-BioKar Diagnostics, Allone, France) at 37° C. for 24 h. All bacterial strains were sub-cultured on MH agar and incubated overnight at 37° C. before each assay, in order to obtain fresh cultures.
(§2) An initial screening of the antibacterial activity of the compounds was performed by the Kirby-Bauer disk diffusion method, as recommended by the Clinical and Laboratory Standards institute (CLSI). Briefly, sterile 6 mm blank paper disks (Oxoid, Basingstoke, England) impregnated with 15 μg of each compound were placed on inoculated MH agar plates. A blank disk with DMSO was used as a negative control. MH inoculated plates were incubated for 18-20 hours at 37° C. At the end of the incubation, the inhibition halos where measured. The minimal inhibitory concentration (MIC) was used to determine the antibacterial activity of each compound, in accordance with the recommendations of the CLSI. Two-fold serial dilutions of the compounds were prepared in Mueller-Hinton Broth 2 (MHB2-Sigma-Aldrich, St. Louis, Mo., USA) within the concentration range of 0.062-64 μg/mL. Cefotaxime (CTX) ranging between 0.031-16 μg/mL was used as a control. Sterility and growth controls were included in each assay. Purity check and colony counts of the inoculum suspensions were also performed in order to ensure that the final inoculum density closely approximates the intended number ([…]). The MIC was determined as the lowest concentration at which no visible growth was observed. The minimal bactericidal concentration (MBC) was assessed by spreading 10 μL of culture collected from wells showing no visible growth on MH agar plates. The MBC was determined as the lowest concentration at which no colonies grew after 16-18 hours incubation at 37° C. These assays were performed in duplicate.
Background: Dilution methods test growth across graded concentrations, often in twofold steps.

Data set [6] has as its system S. aureus 40/61/24. As to the kind of experiment: MIC/MBC broth dilution (CLSI), sensitive clinical isolate. The class given is cell-based. The following applies: Staphylococcus aureus; for MIC: 40/61/24; for MBC: S. aureus 40/61/24.
Excerpt: as §1, §2

Data set [7] relates to S. aureus 66/1 (MRSA). As to the kind of experiment: MIC/MBC broth dilution (CLSI), MRSA. The following applies: Staphylococcus aureus. The class given is cell-based.
Excerpt: as §1, §2

The test system of data set [8] is E. faecalis B3/101 (VRE). As to the kind of experiment: MIC/MBC broth dilution (CLSI), VRE. The class given is cell-based. The following applies: Enterococcus faecalis.
Excerpt: as §1, §2

Data set [9] has as its system E. faecalis A5/102 (VRE). As to the kind of experiment: MIC/MBC broth dilution (CLSI), VRE sensitive to ampicillin. The class given is cell-based. The settings on record: Enterococcus faecalis.
Excerpt: as §1, §2

Data set [10] relates to E. faecalis ATCC 29212. As to the kind of experiment: MIC/MBC broth dilution (CLSI), E. faecalis reference strain. The class given is cell-based, Enterococcus faecalis. The following applies: for MBC / MIC: Enterococcus faecalis.
Excerpt: as §1, §2

Data set [11] relates to hemozoin. The following applies: trophozoite stage; cited from earlier work.
Data set [12] relates to P. falciparum 3D7 strain. The following applies: cited from earlier work.
The test system of data set [13] is Enterococcus faecalis. The settings on record: cited from earlier work.
Data set [14] deals with Staphylococcus aureus. The settings on record: cited from earlier work.
Data set [15] has as its system Vibrio harvevi. The settings on record: cited from earlier work.
The mark [16] stands for this setting: P. falciparum (3D7), 48 h, read-out: IC50.
Setting [17] is: S. aureus ATCC 29213, read-out: MIC.

Values after ≈ are worked out from the molar mass of the structure shown. Like-named read-outs stand apart in the source and are kept apart here.

In the case of `CC(C)[C@@H]1NC(=O)[C@@H](Cc2c[nH]c3ccccc23)n2c1nc1ccccc1c2=O` [Compound 12, fiscalin B], the “hemolytic activity (in words)” value in data set [1] is “no hemolytic activity”. In addition, the “antimalarial activity (in words)” value in data set [2] is “highest antimalarial activity”. Also, the half-inhibitory concentration (IC50) in data set [2] (setting [16]) turned out to be 100 ± 20 nM. Further, in data set [3] (Chinese hamster), the DL50 was determined as 1.91 ± 0.44 µM. Further, in data set [3], the “SI (Selectivity Index)” value was 19. In data set [4], the “inhibition of the polymerization of β-hematin in vitro (in words)” value (“inhibition of the polymerization … (in words)” for short) was “did not show to inhibit”.

Regarding `CC(C)C[C@@H]1NC(=O)[C@@H](Cc2c[nH]c3ccccc23)n2c1nc1ccccc1c2=O` [Compound 16], in data set [1], the “hemolytic activity (in words)” value is recorded as “no hemolytic activity”. In data set [2], the “antimalarial activity (in words)” value is given as “highest antimalarial activity”. The IC50 in [2] (setting [16]) was found to be 50 ± 20 nM. For the same compound, the DL50 in [3] (Chinese hamster) is 1.78 ± 0.47 µM. Also, the “SI (Selectivity Index)” value in data set [3] is 34. The “inhibition of the polymerization … (in words)” value in data set [4] was “did not show to inhibit”.

Consider `CC(C)C[C@@H]1NC(=O)[C@@H](Cc2c[nH]c3ccccc23)n2c1nc1ccc(Cl)cc1c2=O` [Compound 28], for which the “antibacterial (inhibitory) effect (in words)” value in data set [5] (S. aureus ATCC 29213) and in [10] was “inhibitory effect” in each case. Moreover, the MBC in data set [5] (S. aureus ATCC 29213), in [6], in [7], in data set [8], in data set [9] and in data set [10] (ATCC29212) was over 64 µg/mL throughout. Besides, the MIC was 32 µg/mL (≈ 73.6 µM) in data set [5] (setting [17]); 64 µg/mL (≈ 147 µM) in [6]; over 64 µg/mL in data set [7]; over 64 µg/mL in [8]; 64 µg/mL (≈ 147 µM) in data set [9]; 32 µg/mL (≈ 73.6 µM) in data set [10] (ATCC29212).

In the case of `CC[C@H](C)[C@@H]1NC(=O)[C@@H](Cc2c[nH]c3ccccc23)n2c1nc1ccc(Cl)cc1c2=O` [Compound 29, (1S,4R)-4-((1H-indol-3-yl)methyl)-1-((S)-sec-butyl)-8-chloro-1,2-dihydro-6H-pyrazino[2,1-b]quinazoline-3,6(4H)-dione], the “antibacterial (inhibitory) effect (in words)” value in data set [5] (S. aureus ATCC 29213) and in data set [10] was “inhibitory effect” in each case. For the same compound, the minimal inhibitory concentration (MIC) in data set [5] was 16 µg/mL (≈ 36.8 µM); in data set [6] it was 64 µg/mL (≈ 147 µM); in data set [7] it was over 64 µg/mL; in data set [8], over 64 µg/mL; in data set [9], 64 µg/mL (≈ 147 µM); in [10] (ATCC29212) it was 32 µg/mL (≈ 73.6 µM). Also, the MBC in data set [5] (S. aureus ATCC 29213), in [6], in data set [7], in data set [8], in data set [9] and in data set [10] (ATCC29212) was over 64 µg/mL in each case.

Turning to `CC(C)C[C@@H]1NC(=O)[C@@H](Cc2c[nH]c3ccccc23)n2c1nc1c(Cl)cc(Cl)cc1c2=O` [Compound 31, (1S, 4R)-4-((1H-indol-3-yl)methyl)-8,10-dichloro-1-isobutyl-1,2-dihydro-6H-pyrazino[2,1-b]quinazoline-3,6(4H)-dione], the “hemolytic activity (in words)” value in data set [1] was “no hemolytic activity”. Further, the “antibacterial (inhibitory) effect (in words)” value in data set [5] (S. aureus ATCC 29213) was “inhibitory effect”. The MBC in data set [5] (S. aureus ATCC 29213), in [6], in data set [7] and in data set [10] (ATCC29212) was over 64 µg/mL throughout. The MIC in [5] (setting [17]) is 4 µg/mL (≈ 8.52 µM); in data set [6], 8 µg/mL (≈ 17 µM); in data set [7], 8 µg/mL (≈ 17 µM); in data set [10] (ATCC29212, read-out: MIC) it was over 64 µg/mL. Also, in data set [2], the “antimalarial activity (in words)” value is “highest antimalarial activity”. The compound also had an IC50 in data set [2] (3D7, 48 h) of 200 nM. The DL50 in data set [3] (Mammalian cells (V79), MTT) stood at 14.00 ± 1.41 µM. Besides, the “inhibition of the polymerization … (in words)” value in data set [4] is on record as “did not show to inhibit”.

As for `O=C(C[C@H]1NCCC[C@@H]1O)Cn1cnc2ccccc2c1=O` [Febrifugine (9, FF), febrifugine], in data set [11], the “inhibition of the formation of hemozoin (in words)” value is “significantly inhibits”.

For the compound `Clc1ccc2nccc(N3CCC(CN4CCC(c5c[nH]c6ccccc56)CC4)CC3)c2c1` [TCMDC-134281 (8), TCMDC-134281], the EC50 in data set [12] is 34 nM.

As to `CC(C)[C@@H]1NC(=O)[C@@H](C[C@]2(O)c3ccccc3N3C(=O)[C@@H](C)N[C@H]32)n2c1nc1ccccc1c2=O` [neofiscalin A (2), neofiscalin A], the MIC in [13] and in [14] was 8 µg/mL (≈ 16.9 µM) each time.

Take glyantypine [glyantypine (1)]: the MIC in data set [15] was 32 µg/mL.
